# Data as given in patent publication US9387192B2, “Combination of rocaglamide and apoptosis inducing substances for the treatment of cancer” (DKFZ DEUTCHERS KREBSFORSCHUNGSZENTRUM, priority 2008, dated 2016).
# What was measured:
# [1] = test system: mouse leukemic RMA T cells; assay: Activation-induced apoptosis in RMA cells in vitro; format: cell-based
# Method: (§1) The mouse lymphoma cell line RMA (van Hall et al., 2000), the human leukemic T cell lines DND-41 (contains a p53 mutation), Jurkat J16, Jurkat A3 and Jurkat A3 deficient in FADD (J-FADDdef) (purchased from American Type Culture Collection, ATCC, Manassas, USA) were cultured in RPMI 1640 medium (GIBCO laboratories, Grand Island, N.Y.) supplemented with 10% FCS, 50 μg/ml gentamicin (GIBCO), 6 mM HEPES (GIBCO, 1 M solution), and 2 mM L-glutamine (GIBCO, 200 mM solution) at 37° C. and 5% CO2. T cells were stimulated with either plate-bound αCD3 (OKT3 10 μg/ml) or PMA (5 ng/ml) plus ionomycin (0.5 μM).
# (§2) Cells were plated in triplicates and treated for the indicated periods of time at 37° C. with different reagents as described in the figure legends. Rocaglamide derivatives used in this study were isolated from various Aglaia species to at least 98% purity determined by HPLC as reported previously (Schneider et al., 2000). The structures of the compounds were unequivocally elucidated based on their NMR and mass spectra as described before (Schneider et al., 2000). Apoptotic cell death was examined by two parameters: FSC/SSC index of apoptotic-like change in cell size and granularity by FACScan and by analysis of DNA fragmentation (Vermes et al., 2000).
# RMA tumor = RMA tumor graft in C57/BL6 mice; format: in vivo, mouse
# Method: C57/BL6 mice were implanted subcutaneously in the right dorsal flank region with RMA (1×10^6 cells). One day after grafting, Roc-Q (1 mg/kg body weight, dissolved in DMSO and diluted in olive oil) was administered by intraperitoneal injection (i.p.) as indicated in the figure legend. The control group was treated in an analogous manner with the vehicle. The tumor size was measured with a micrometer caliper at the indicated times and the tumor volume (V) was calculated by the formula V=(a^2×b)/2, where “a” is the width and “b” is the length in mm (Mattern et al., 1998). All protocols using and maintaining animals were approved by the German Animal Protection Authority (Office Regierungspräsidium Karlsruhe). Treated and control animals were compared for differences in tumor growth after end of treatment using the non-parametric method in a one-sided statistical test at the significance level of 0.05 (Koziol et al., 1981).
# To investigate whether the effect of Roc on activation-induced cell death is also occurred in vivo, RMA cells were grafted subcutaneously into the C57/BL6 mice. One day after xenografting, the mice were randomly separated into four groups (each group contains 5 mice). One group with no treatment was taken as a control, and the other three groups received Con A, Roc-Q, or a combination of Roc-Q and Con A, respectively, three times per week by intraperitoneal injection (i.p.). Two independent experiments were carried out. In the first experiment, RMA (10×10^5 cells)-grafted mice were treated with or without 1 mg/kg body weight of Roc-Q in the presence or absence of Con A as described in FIG. 4A. No toxicity was seen up to a dose of 10 mg/kg body weight (Lee et al., 1998). Acute toxicity was reported with an LD50 of >300 mg/kg (Umezawa et al., 1997). […] In this experiment, the control mice developed tumors after 9 days.
# [2] = Glutamate pyruvate transaminase (GPT) liver toxicity in mice; format: in vivo, mouse; conditions: RMA-grafted mice treated with Roc-Q, Con A or both; normal GPT below 50 U/l
# Method: To examine the liver toxicity of Rocaglamide, the activities of GPT were determined from the heparinized blood of mice by test strips Reflotron® GPT as described by the instruction of the manufacture (Roche 10745138). The normal levels of GPT activity should be below 50 U/l.
# [3] = cited from earlier work
# [4] = test system: leukemia cell line Jurkat; assay: Apoptosis (FSC/SSC) in Jurkat with TNFα or TRAIL; format: cell-based; conditions: 24 h
# Method: (§3) Pancreatic carcinoma cell lines MiaPaca and Capan-1 were treated with Roc-A (50 nM) in combination with different doses of anticancer reagents for 48 h. Apoptotic cell death was determined by Nicoletti (DNA-fragmentation). The leukemia cell line Jurkat was treated with either TNFα (20 ng/ml) or TRAIL (2 ng/ml) in combination with different doses of rocaglamide as indicated for 24 h. Apoptotic cell death was determined by FSC/SSC.
# [5] = test system: human leukemic Jurkat T cells; assay: Apoptosis (FSC/SSC, DNA fragmentation) in Jurkat T cells; format: cell-based
# Method: as §1, §2
# [6] = test system: human leukemic DND-41 T cells (p53 mutation); assay: Apoptosis in DND-41 T cells; format: cell-based
# Method: as §1, §2
# [7] = test system: caspase-8, -9, -3, Bid, PARP; assay: Western blot of apoptotic pathway proteins in Jurkat T cells; format: cell-based, human; conditions: 24 h
# Method: 1×10^6 cells were sedimented and lysed for 15 min in ice-cold lyses buffer (29 mM Tris-HCl, pH 7.4, 137 mM NaCl, 10% (w/v) Glycerin, 1% (v/v) Triton X-100, 2 mM EDTA, 1 mM PMSF, 0.4 mM […], 10 mM NaF, complete protease inhibitor cocktail, Roche). After removing the cell debris by centrifugation at 13,000 rpm for 15 min, equal amounts of proteins were separated on a 12% SDS-PAGE, blotted onto a nitrocellulose membrane (Amersham Biosciences, Little Chalfon, UK) and blocked with 5% non-fat drymilk in PBS/Tween (0.05% Tween-20 in PBS). […]
# [8] = test system: normal peripheral blood T cells; assay: Activation-induced cell death in normal peripheral blood T cells (day 0, day 6); format: cell-based, human
# Method: Human peripheral T cells were prepared as described previously (Klas et al., 1993) and were more than 90% CD3 positive. For activation, resting T cells (day 0) were cultured at 2×10^6 cells/ml with 1 μg/ml PHA for 16 h (day 1). Day 1 T cells were then washed three times and cultured for an additional 5 days in the presence of 25 U/ml IL-2 (day 6).
# as §2
# [9] = test system: MiaPaca pancreatic carcinoma cell line; assay: Apoptosis (Nicoletti) in MiaPaca with anticancer reagents; format: cell-based; conditions: Roc-A 50 nM with different doses of anticancer reagents, 48 h
# Method: as §3
# [10] = test system: Capan-1 pancreatic carcinoma cell line; assay: Apoptosis (Nicoletti) in Capan-1 with anticancer reagents; format: cell-based; conditions: Capan-1, Roc-A 50 nM with different doses of anticancer reagents, 48 h
# Method: as §3
# [11] = test system: HTLV-1-associated ATL cell lines SP, MT-2, ATL-3 and CHAMP; assay: Apoptosis (DNA fragmentation) in HTLV-1-associated ATL cell lines; format: cell-based, human; conditions: HTLV-1-infected ATL cell lines, TRAIL alone, different concentrations
# Method: (§4) The human malignant cell lines used in this study are: the human leukemic T cell lines CEM and Jurkat (J16), the HTLV-1 ATL derived cell lines SP, MT-2, CHAMP, and ATL-3, and Hodgkin lymphoma derived cell lines L1236 and KM-H2. Human peripheral blood T cells were prepared as described previously (Zhu et al., 2009) and were more than 90% CD3 positive. All cells were cultured in RPMI 1640 medium (GIBCO laboratories, Grand Island, N.Y.) supplemented with 10% FCS, 50 μg/ml gentamicin (GIBCO), 6 mM HEPES (GIBCO, 1 M solution), and 2 mM L-glutamine (GIBCO, 200 mM solution) at 37° C. and 5% CO2.
# (§5) Cells were plated in triplicates and treated for the indicated periods of time at 37° C. with different doses of Rocaglamide AR (Roc-AR) (>98% pure, assessed by HPLC) (Proksch et al., 2005), Superkiller-TRAIL (Alexis) or LZ-CD95L (Walczak et al., 1999) alone, or in combinations as indicated in figures. Apoptotic cell death was determined by analysis of DNA fragmentation (% DNA fragmentation) as previously described (Krueger et al., 2006). Specific apoptosis was calculated as (percentage of experimental apoptosis−percentage of spontaneous apoptosis)/(100−percentage of spontaneous apoptosis)×100.
# [12] = test system: Hodgkin lymphoma cell line L1236; assay: Apoptosis (DNA fragmentation) in L1236 cells; format: cell-based, human; conditions: L1236, TRAIL alone, different concentrations, 48 h
# Method: as §4, §5
# [13] = test system: Hodgkin lymphoma cell line KM-H2; assay: Apoptosis (DNA fragmentation) in KM-H2 cells; format: cell-based, human; conditions: KM-H2, TRAIL alone, different concentrations, 48 h
# Method: as §4, §5
molecule,measurement,setting,value
CNC(=O)C1C(O)C2(O)c3c(OC)cc(OC)cc3OC2(c2ccc(OC)cc2)C1c1ccccc1 (centres unmarked) [Roc-Q],PMA/ionomycin- or Con A-stimulation induced cell death,[1],enhanced
same,tumor size and tumor growth rate,"RMA tumor; first experiment, 10×10^5 RMA cells, single agent only (Roc-Q 1 mg/kg or Con A 5 mg/kg) i.p. three times per week",No significant changes in tumor size and tumor growth rate
same,tumor growth,"RMA tumor; first experiment, Roc-Q 1 mg/kg combined with Con A 5 mg/kg i.p.",delayed tumor growth
same,tumor size,"RMA tumor; first experiment, Roc-Q 1 mg/kg combined with Con A 5 mg/kg i.p., final day",reduced tumor sizes
same,body weight loss,"RMA tumor; mice after treatment with Roc-Q, Con A or both",no body weight loss
same,tumor growth,"RMA tumor; second experiment, 2.5×10^5 RMA cells, single agent only (Roc-Q 2.5 mg/kg or Con A 5 mg/kg) i.p.",Significantly delayed tumor growth
same,tumor progression and tumor growth,"RMA tumor; second experiment, Roc-Q 2.5 mg/kg combined with Con A 5 mg/kg, except for one mouse",further inhibition
same,tumor size and tumor weight,"RMA tumor; second experiment, Roc-Q alone 2.5 mg/kg",reduced tumor sizes and tumor weight
same,liver toxicity (GPT activity),[2],No liver toxicity
same,dose up to which no toxicity was seen,"[3]; Lee et al., 1998",≤ 10 mg/kg body weight
same,acute toxicity LD50,"[3]; Umezawa et al., 1997",> 300 mg/kg
COc1ccc([C@@]23Oc4cc(OC)cc(OC)c4[C@]2(O)[C@H](O)[C@H](C(=O)N(C)C)[C@H]3c2ccccc2)cc1 [rocaglamide],apoptotic cell death,[4]; TNFα 20 ng/ml with different doses of rocaglamide,synergistically increased the apoptic cell death
same,apoptotic cell death,[4]; TRAIL 2 ng/ml with different doses of rocaglamide,synergistically increased the apoptic cell death
Roc-A,apoptotic cell death,[5]; Jurkat T cells stimulated with αCD3 or PMA/ionomycin in the presence of Roc-A,dose-dependent increase in apoptotic cell death
same,apoptotic cell death,"[5]; Jurkat, Roc-A 50 nM combined with anti-CD95 antibody αAPO-1, 24 h",enhanced apoptotic cell death
same,apoptotic cell death,"[5]; Jurkat, Roc-A 50 nM combined with recombinant LZ-CD95L, 24 h",enhanced apoptotic cell death
same,cell death compared to Jurkat T cells,"[6]; DND-41, Roc-A alone",more resistant
same,apoptotic cell death,"[6]; DND-41, combination of Roc-A and PMA/ionomycin stimulation",dramatic increase in apoptotic cell death
same,caspase and PARP cleavage (Western blot),[7]; Roc-A alone,activation of caspase-9 and generation of a detectable amount of the active p17 caspase-3 product and weak PARP cleavage
same,cleavage of caspase-8 (Western blot),[7]; Roc-A with T-cell stimulation (PMA/ionomycin),strongly increased cleavages of caspase-8
same,toxicity,"[8]; day 0 (resting) T cells, Roc-A alone 50 nM, 48 h",no toxicity
same,cell death,"[8]; day 0 T cells, Roc-A 50 nM with PMA/ionomycin, 48 h",did not increase cell death
same,PMA/ionomycin-induced cell death,"[8]; day 6 (pre-activated) T cells re-stimulated with PMA/ionomycin, Roc-A 50 nM",did not further enhance PMA/ionomycin-induced cell death
same,PMA/ionomycin- or Con A-stimulation induced cell death,[1],enhanced
same,apoptotic cell death,[9],synergistically increased the apoptic cell death
same,apoptotic cell death,[10],synergistically increased the apoptic cell death
TRAIL,TRAIL-induced apoptosis,[11],resistant to TRAIL-induced apoptosis
same,TRAIL-mediated apoptosis,[12],completely resistant
same,TRAIL-mediated apoptosis,[13],completely resistant
